“And” between values parts separate entries of the source, which are not always exact repeats. Equal values may be shown once.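 Interpolation was linear, between the two tested concentrations surrounding the appropriate level; five concentrations were tested over 48 hours in 96-well plates. At the GI50, growth is halved. TGI: total growth inhibition.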
Assays:
Assay in all cases: NCI-60 cell line screen, 48 h
UO-31 renal = test system: UO-31 renal
DU-145 prostate = test system: DU-145 prostate
BT-549 breast = test system: BT-549 breast
T-47D breast = test system: T-47D breast
MOLT-4 leukemia = test system: MOLT-4 leukemia
SK-OV-3 ovarian = test system: SK-OV-3 ovarian
RPMI-8226 leukemia = test system: RPMI-8226 leukemia
786-0 renal = test system: 786-0 renal
CAKI-1 renal = test system: CAKI-1 renal
U251 CNS = test system: U251 CNS

| Structure (SMILES) | TGI (UO-31 renal) [µM] | TGI (DU-145 prostate) [µM] | TGI (BT-549 breast) [µM] | TGI (T-47D breast) [µM] | TGI (MOLT-4 leukemia) [µM] | TGI (SK-OV-3 ovarian) | TGI (RPMI-8226 leukemia) [µM] | TGI (786-0 renal) | TGI (CAKI-1 renal) | TGI (U251 CNS) | GI50 (RPMI-8226 leukemia) | GI50 (BT-549 breast) [µM] | GI50 (SK-OV-3 ovarian) [µM] | GI50 (U251 CNS) [µM] |
| --- | --- | --- | --- | --- | --- | --- | --- | --- | --- | --- | --- | --- | --- | --- |
| CC1(C)CCC[C@@]2(C)C1CC[C@@]1(CO)O[C@H](C3=CC(=O)OC3O)C[C@H]12 (some centres undefined) | 29.2 | 17.8 | 20.7 | 25.8 | 11.5 | 72.6 µM | > 36.1 | 38.6 µM | 28.6 µM | 28.5 µM | – | – | – | – |
| O=c1c2ccc(Cl)cc2oc2c(CSc3ccccc3)cccc12 | > 38.4 | > 100 | > 78.7 | > 100 | > 100 | > 100 µM | 81.3 | > 100 µM | > 79.7 µM | > 100 µM | – | – | – | – |
| CC(=O)Oc1cc2c(cc1OCC(F)(F)F)[C@H]1CC[C@]3(C)[C@@H](OC(C)=O)CC[C@H]3[C@@H]1CC2=O | 42.2 | 51.6 | > 77.7 | > 89.1 | 38.8 | 59.7 µM | 68.8 | > 100 µM | 47 µM | > 74.1 µM | – | – | – | – |
| [N-]=[N+]=CC(=O)C1CCN(c2ccccc2)C1=O (centres undefined) | > 10 | > 10 | > 10 | > 10 | > 10 | > 10 µM | > 10 | > 10 µM | > 10 µM | > 10 µM | – | – | – | – |
| O=c1c2[nH]cnc2n(-c2ccccc2)c(=S)n1-c1ccccc1 | > 100 | > 100 | > 100 | > 100 | > 100 | > 100 µM | > 100 | > 100 µM | > 100 µM | > 100 µM | – | – | – | – |
| COc1cc2c(cc1OC)C1=C(C=O)c3ccc(OC)c(OC)c3C(O)N1CC2 (centres undefined) | > 100 | 87.5 | 70.1 | 57.9 | > 100 | > 100 µM | 38.3 | > 100 µM | > 100 µM | 45.9 µM | – | – | – | – |
| COc1cc2c(cc1O)NC(=O)[C@@H]1C[C@@H](O)CN1C2=O | > 100 | > 100 | > 100 | > 100 | > 100 | > 100 µM | > 100 | > 100 µM | > 100 µM | > 100 µM | – | – | – | – |
| Cn1c2c(c3c(=O)[nH]ncc31)Cc1ccccc1-2 | 45.1 | 50.7 | 60.5 | 78.2 | > 100 | > 100 µM | 69 | 51 µM | > 100 µM | 85.8 µM | – | – | – | – |
| C/C(=N\NC(=S)NC(C)(C)C)c1nc2ncccc2[nH]1 | 5.82 | > 57.5 | 20.3 | > 33.7 | 23.7 | 12.6 µM | > 100 | > 100 µM | 16.4 µM | > 100 µM | – | – | – | – |
| CC1(C)C(=O)/C(=C/c2ccccc2)C(C)(C)C1(C)C | > 100 | > 100 | > 100 | > 100 | > 100 | > 100 µM | > 100 | > 100 µM | > 100 µM | > 100 µM | – | – | – | – |
| Cc1ccc(C(=O)Nc2ccc(CP(=O)(O)O)cc2CP(=O)(O)O)cc1N | > 100 | > 100 | > 100 | > 100 | > 100 | > 100 µM | > 100 | > 100 µM | > 100 µM | > 100 µM | – | – | – | – |
| O=C(OCCN=c1c2ccccc2ccc2ccccc12)c1cc([N+](=O)[O-])cc([N+](=O)[O-])c1 | > 100 | > 100 | > 100 | > 100 | > 100 | > 100 µM | > 100 | > 100 µM | > 100 µM | > 100 µM | – | – | – | – |
| COC(=O)CCC(C)[C@H]1CCC2C3CC[C@@H]4CC5(CC[C@]4(C)C3C[C@H](OC(C)=O)[C@@]21C)OOC1(CCCCC1)OO5 (some centres undefined) | 9.04 | 43.1 | > 100 | 50 | > 100 | > 100 µM | 10.8 | > 100 µM | 37 µM | > 100 µM | – | – | – | – |
| COc1ccccc1N=Nc1c(O)ccc2ccccc12 | 39.1 | > 100 | > 100 | > 100 | > 100 | 29.5 µM and 38.3 µM | > 100 | 26.7 µM and 40.3 µM | 38.8 µM and 48.6 µM | > 62.4 µM and 40.4 µM | 30.4 µM and > 100 µM | – | – | – |
| COc1ccc(S(=O)(=O)NC(CCC(=O)NC(N)=O)C(=O)NC(N)=O)cc1 (centres undefined) | > 100 | > 100 | > 100 | > 100 | > 100 | > 100 µM | > 100 | > 100 µM | > 100 µM | > 100 µM | – | – | – | – |
| CC(C)Oc1cccc(N2C(CCc3c[nH]c4ccc(Br)cc34)=NS(=O)(=O)c3cnccc32)c1 | > 100 | > 100 | > 100 | > 100 | 92 | > 100 µM | > 100 | > 100 µM | > 100 µM | > 100 µM | – | – | – | – |
| O=c1[nH]c2c(Nc3c4ccccc4nc4ccccc34)c([N+](=O)[O-])c(Nc3c4ccccc4nc4ccccc34)c([N+](=O)[O-])c2[nH]1 | 2.76 | 11.5 | 20.6 | > 39.1 | 2.39 | 18.4 µM | 8.27 | > 28.4 µM | 6.69 µM | 8.35 µM | – | – | – | – |
| Nc1c(C(=O)O)c2ccc([N+](=O)[O-])cc2c(=O)n1-c1nc2ccccc2s1 | > 100 | > 100 | > 100 | > 100 | > 100 | > 100 µM | > 100 | > 100 µM | > 100 µM | > 100 µM | – | – | – | – |
| COC1=C(OC)C(=O)C(Cc2c(Cl)nc3sccn23)=C(C)C1=O | 23.6 | 27.2 | 27.5 | 17.8 | 4.17 | 21.7 µM | 15.7 | 33.2 µM | 45 µM | 25.1 µM | – | – | – | – |
| CC(C)OC(=O)C(NC(=O)C(CC(=O)OCc1ccccc1)NC(=O)OCc1ccccc1)NC(=O)C1C(C)(C)CCC1(C)C (centres undefined) | 13.4 | > 52.4 | 34.3 | > 69.5 | > 51 | 10.4 µM | 24.2 | 5.3 µM | 21.9 µM | 4.68 µM | – | – | – | – |
| O=C1Nc2noc(=O)nc2NO1 | > 200 | > 200 | > 200 | > 200 | > 200 | > 200 µM | > 200 | > 200 µM | > 200 µM | > 200 µM | – | – | – | – |
| CN(Cc1cnc2nc(N)nc(N)c2n1)c1ccc(C(=O)NC(CCC(=O)O)C(=O)O)c2ccccc12 (centres undefined) | > 1000 | > 1000 | > 1000 | > 1000 | > 1000 | > 1000 µM | > 1000 | > 1000 µM | > 1000 µM | > 1000 µM | – | > 1000 | 55.3 | 293 |
| COc1cccc2c(=O)oc(-c3ccccc3C)nc12 | > 100 | > 100 | 48.2 | > 100 | 68 | > 100 µM | > 100 | > 100 µM | > 100 µM | > 100 µM | – | – | – | – |
| COc1ccc(C2C(=O)c3ccc(OC)cc3OC2c2cccnc2)cc1 (centres undefined) | > 100 | > 100 | > 100 | > 100 | > 100 | > 100 µM | > 100 | > 100 µM | > 100 µM | > 100 µM | – | – | – | – |
| Cn1c(CO)ccc1-c1ccc(-c2ccc(CO)[se]2)[se]1 | > 100 | > 100 | > 91.4 | > 100 | > 51.2 | > 100 µM | 12.1 | > 76 µM | 0.0381 µM | 24.4 µM | – | – | – | – |
| Cc1nc(C(=Nc2ccc(Br)cc2)Nn2cnnc2)no1 | > 100 | > 100 | > 100 | > 100 | > 100 | > 100 µM | > 100 | > 100 µM | > 100 µM | > 100 µM | – | – | – | – |
| COc1ccc2oc(=O)c(-c3cc4c(c(C)n3)c(=O)oc3ccc(OC)cc34)cc2c1 | > 100 | > 100 | > 100 | > 100 | > 100 | > 100 µM | > 100 | 4.34 µM | > 100 µM | > 100 µM | – | – | – | – |
| COc1cc2c(cc1O)C(Cc1ccc(OCc3ccccc3)c(OCc3ccccc3)c1)N(C(=O)NCCc1ccccc1)CC2 (centres undefined) | > 100 | > 100 | > 100 | > 100 | > 100 | > 100 µM | > 100 | > 100 µM | > 100 µM | > 100 µM | – | – | – | – |
| Cc1n[nH]c(=O)n1-n1cccc1 | > 100 | > 100 | > 100 | > 100 | > 100 | > 100 µM | > 100 | > 100 µM | > 100 µM | > 100 µM | – | – | – | – |

Source: PubChem BioAssay (NCI)
